Assays:
IP L1210 = test: Activity against IP-implanted L1210 leukemia sensitive to cisplatin, 60 day test (Table 4); type: in vivo, Female CD2Fl mice
Procedure: (§1) Biological properties of the compounds of the present invention were determined following the protocol described in Cancer Chemotherapy Reports, Vol. 3, No. 3, 1972 which report is incorporated herein by reference.
(§2) Other known mechanisms of resistance for other classes of agents, such as gene amplification or target enzyme change or amplication, also need to be explored. The experiments summarized in Table 3 were conducted at the same time against both sublines using the same drug preparations. […] These experiments were repeated in a second laboratory as documented in Table 4. However, in these experiments the animals were held for 60 rather than 30 days to evaluate whether or not long-term survivors are produced after drug treatment in a more challenging setting.
This experiment (A8-00005 3LE31) was conducted at the Southern Research Institute, Birmingham, Ala. under the supervision of Dr. Daniel Griswold. The protocols were the same as those published previously (Geran et al., Cancer Chemotherapy Reports 3: No. 2, 1972 [Attachment 11]). 10^5 cells were implanted intraperitoneally in CD2Fl male mice on Day 0. Drug treatments were given intraperitoneally as single injections at the doses indicated on Days 1, 5 and 9 after tumor implantation. The diluent was saline except for NSC-271674 where 5% sodium bicarbonate was used. All drugs were prepared fresh on the day of injection, and all were administered in solution. Median survival times for both control and drug-treated mice were determined and expressed as a percentage (% T/C). Body weights were determined on Day 5 and expressed as a weight difference (body weight of the drug-treated animals minus that of the control animals in grams) (T-C). The diluent control animals lived a median of 8.4 days and gained 1.9 grams by Day 5 in this experiment. All animals, including Day 30 survivors, were used in the calculation of median survival times. The log10 change in tumor burden refers to the net log change in viable tumor cell population at the end of therapy (Rx) as compared to the start of therapy; e.g., a […] means that there was a […] and a 3 log change means there was a 1000-fold increase in tumor burden at the end of therapy. The tumor burden at the start of therapy was about 6.1×10^5 cells in this experiment.
(§3) These experiments (23-00081 3LE31 and 23-00003 3DP3l) were conducted concurrently at the Mason Research Institute, Worcester, MA under the supervision of Dr. William Cobb. See Table 4 for experimental details. The diluent control animals bearing L1210 leukemia lived a median of 8.3 days and gained 1.6 grams by Day 5. […] Female CD2Fl mice were used for these experiments.

[1] = tested on: SC Implanted L1210 Leukemia; test: Activity against SC implanted L1210 leukemia following intravenous administration, once daily Days 1-5 (Table 5); type: in vivo, CD2Fl male mice
Procedure: as §1
In another type of experiment the same platinum complexes were directly compared against the SC implanted L1210 following intravenous administration (Table 5).
This experiment (A8-00004 3LE32) was conducted at the Southern Research Institute, Birmingham, Ala. under the supervision of Dr. Daniel Griswold. The protocols were the same as those published previously (Attachment 11). 10^6 cells were implanted subcutaneously in CD2Fl male mice on Day 0. Drug treatments were given intravenously once daily at the doses indicated on Days 1-5 after tumor implantation. The dosage range tested included the highest and lowest doses indicated in the Table as well as intermediate values which were determined by multiplying each dose in turn by 0.5 starting with the highest dose. The diluent was saline except for NSC-271674 for which 5% sodium bicarbonate was used. All drugs were prepared fresh on the day of injection, and all were administered in solution. Median survival times for both control and drug-treated mice were determined and expressed as a percentage (% T/C). Body weights were determined on Day 5 and expressed as a weight difference (body weight of the drug-treated animals minus that of the control animals in grams) (T-C).

[2] = tested on: L1210 and L1210/Cisplatin leukemia; test: Total number of long-term survivors in Tables 2-4; type: in vivo, CD2Fl mice; conditions: Tables 2-4 summed
Excerpt: If one summarizes the data in Tables 2-4 by totalling the number of long-term survivors, unexpected differences among the isomers become apparent. For example, the trans l compound produced 30 long-term survivors.

IP L1210 leukemia = test: Mouse optimal (highest tolerated) dose, IP L1210 leukemia, Days 1, 5 and 9 schedule (Table 7); type: in vivo
Excerpt: *IP L1210 leukemia, Days 1, 5 and 9 schedule. Highest tolerated dose in a
least 2 of 3 experiments (i.e,. animal weight difference (testcontrol)

IP L1210/Cisplatin = test: Activity against IP-implanted L1210/Cisplatin leukemia resistant to cisplatin, 60 day test (Table 4); type: in vivo, Female CD2Fl mice
Procedure: as §1
as §2, with “setting. […]” for “setting.”
as §3

SMILES | 60 Day Survivors/Total (IP L1210; 1 mg/kg/dose) | Body Weight Difference (IP L1210; 1 mg/kg/dose) | Median % T/C (IP L1210; 1 mg/kg/dose) | 60 Day Survivors/Total (IP L1210; 2 mg/kg/dose) | Body Weight Difference (IP L1210; 2 mg/kg/dose) | Median % T/C (IP L1210; 2 mg/kg/dose) | 60 Day Survivors/Total (IP L1210; 4 mg/kg/dose) | Body Weight Difference (IP L1210; 4 mg/kg/dose) | Median % T/C (IP L1210; 4 mg/kg/dose) | 60 Day Survivors/Total (IP L1210; 8 mg/kg/dose) | Body Weight Difference (IP L1210; 8 mg/kg/dose) | Median % T/C (IP L1210; 8 mg/kg/dose) | 60 Day Survivors/Total (IP L1210; 16 mg/kg/dose) | Body Weight Difference (IP L1210; 16 mg/kg/dose) | Median % T/C (IP L1210; 16 mg/kg/dose) | Optimal Dose ([1]; IV once daily Days 1-5) | Total number of long-term survivors [2] | Mouse Optimal Dose (highest tolerated dose in at least 2 of 3 experiments) (IP L1210 leukemia) | 60 Day Survivors/Total (IP L1210/Cisplatin; 1 mg/kg/dose) | Body Weight Difference (IP L1210/Cisplatin; 1 mg/kg/dose) | also measured
[Cl][Pt-2]1([Cl])([Cl])([Cl])[NH2+][C@@H]2CCCC[C@H]2[NH2+]1 [trans (l), (1R,2R)-Tetrachloro-trans-1,2-cyclohexanediammine platinum (IV)] | 0/10 | -0.4 Grams | 146% | 2/10 | -0.8 Grams | 216% | 0/10 | -2.2 Grams | 208% | 1/10 | -3.7 Grams | 228% | 0/10 | -5.9 Grams | Toxic | 2.5 mg/kg/inj | 30 | 8 mg/kg | 0/10 | -1.1 Grams | Median % T/C (IP L1210/Cisplatin; 1 mg/kg/dose): 132%; 60 Day Survivors/Total (IP L1210/Cisplatin; 2 mg/kg/dose): 4/10; Body Weight Difference (IP L1210/Cisplatin; 2 mg/kg/dose): -0.8 Grams; Median % T/C (IP L1210/Cisplatin; 2 mg/kg/dose): 239%; 60 Day Survivors/Total (IP L1210/Cisplatin; 4 mg/kg/dose): 3/8; Body Weight Difference (IP L1210/Cisplatin; 4 mg/kg/dose): -1.7 Grams; Median % T/C (IP L1210/Cisplatin; 4 mg/kg/dose): 376%; 60 Day Survivors/Total (IP L1210/Cisplatin; 8 mg/kg/dose): 0/10; Body Weight Difference (IP L1210/Cisplatin; 8 mg/kg/dose): -3.5 Grams; Median % T/C (IP L1210/Cisplatin; 8 mg/kg/dose): 133%; 60 Day Survivors/Total (IP L1210/Cisplatin; 16 mg/kg/dose): 0/10; Body Weight Difference (IP L1210/Cisplatin; 16 mg/kg/dose): -7.3 Grams; Median % T/C (IP L1210/Cisplatin; 16 mg/kg/dose): Toxic
[Cl][Pt-2]1([Cl])([Cl])([Cl])[NH2+][C@H]2CCCC[C@@H]2[NH2+]1 [trans (d), (1S, 2S)-Tetrachloro-trans-1,2-cyclohexanediamine platinum (IV)] | 0/10 | -0.6 Grams | 144% | 3/10 | -1.0 Grams | 216% | 0/10 | -1.2 Grams | 202% | 3/10 | -3.1 Grams | 301% | 0/10 | -7.0 Grams | Toxic | 5.0 mg/kg/inj | 27 | 8 mg/kg | 0/10 | -0.4 Grams | Body Weight Difference ([1]; 5 mg/kg/inj IV): -6.4 Grams; Median % T/C ([1]; 5 mg/kg/inj IV): 172%; Median Survival Time ([1]; 5 mg/kg/inj IV): 17.8 days; HNTD (highest nontoxic dose; animal weight difference ≥ -4.0 grams) ([1]; IV once daily Days 1-5): 2.5 mg/kg/inj; Median % T/C (IP L1210/Cisplatin; 1 mg/kg/dose): 125%; 60 Day Survivors/Total (IP L1210/Cisplatin; 2 mg/kg/dose): 0/10; Body Weight Difference (IP L1210/Cisplatin; 2 mg/kg/dose): -0.2 Grams; Median % T/C (IP L1210/Cisplatin; 2 mg/kg/dose): 147%; 60 Day Survivors/Total (IP L1210/Cisplatin; 4 mg/kg/dose): 6/10; Body Weight Difference (IP L1210/Cisplatin; 4 mg/kg/dose): -1.4 Grams; Median % T/C (IP L1210/Cisplatin; 4 mg/kg/dose): 645%; 60 Day Survivors/Total (IP L1210/Cisplatin; 8 mg/kg/dose): 1/10; Body Weight Difference (IP L1210/Cisplatin; 8 mg/kg/dose): -4.8 Grams; Median % T/C (IP L1210/Cisplatin; 8 mg/kg/dose): 193%; 60 Day Survivors/Total (IP L1210/Cisplatin; 16 mg/kg/dose): 0/10; Body Weight Difference (IP L1210/Cisplatin; 16 mg/kg/dose): -6.1 Grams; Median % T/C (IP L1210/Cisplatin; 16 mg/kg/dose): Toxic

Reference: patent US4599352A, “Antineoplastic platinum (IV) complexes and compositions” (priority 1984, dated 1986)
